Values of other authors as cited in US20070049498A1, “Agricultural compositions which enhance performance of herbicides” (priority 2005, published 2007).

Details: glyphosate in acid form

O=C(O)CNCP(=O)(O)O [glyphosate, N-phosphonomethylglycine]
water solubility: about 1.2%
